Among the test systems are 786-0 renal; M14 melanoma; MCF7 breast; PC-3 prostate; SK-MEL-28 melanoma; SN12C renal; SNB-75 CNS; SR leukemia; TK-10 renal; SK-MEL-2 melanoma.
Common to all, as to assay: NCI-60 cell line screen, 48 h

We go through nine compounds from PubChem BioAssay (NCI).

The structures appear in SMILES notation. Where “and” joins values, the source holds several entries; their conditions need not be identical. Identical values can stand only once.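 Each compound was tested at five concentrations against cells in 96-well plates for 48 hours. The concentration for 50% growth inhibition is given as GI50. TGI: concentration producing complete growth inhibition.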 A value given as a limit tells only on which side of the number the result lay.

As to `COc1ccc(-c2nn3ncccc3c2-c2ccnc(Nc3ccc(F)c(F)c3)n2)cc1`, the GI50 in the test with 786-0 renal is 11.1 µM; in the test on M14 melanoma, 9.61 µM; in the test with MCF7 breast, 10.6 µM; in the test with PC-3 prostate, 8.7 µM; with SK-MEL-28 melanoma it was 17.8 µM; in the test on SN12C renal, 10.4 µM. In addition, the GI50 in the test with SNB-75 CNS is 8.49 µM; in the test on SR leukemia, 18.7 µM; in the test on TK-10 renal it was 14300 nM. For the same compound, the TGI in the test with 786-0 renal, with M14 melanoma, in the test with MCF7 breast, with PC-3 prostate, in the test with SK-MEL-28 melanoma and with SN12C renal was greater than 25 µM in each case. Further, the TGI in the test on SNB-75 CNS, in the test on SR leukemia and in the test with TK-10 renal was greater than 25 µM throughout.

On to `CCCCCCCCCCCC(c1ccccc1)[N+](C)(C)C` (stereo not drawn), for which the GI50 was 1.63 µM in the test on 786-0 renal; 1.37 µM in the test with M14 melanoma; 1.44 µM in the test with MCF7 breast; 0.393 µM in the test on PC-3 prostate; 1.51 µM in the test with SK-MEL-2 melanoma; 1.49 µM in the test with SK-MEL-28 melanoma. Moreover, the figures for the GI50 with SN12C renal, in the test with SNB-75 CNS and in the test on TK-10 renal were 1.59 µM, 1.15 µM and 788 nM, respectively. For the same compound, the TGI worked out at 3.55 µM with 786-0 renal; 4.25 µM with M14 melanoma; 3.19 µM with MCF7 breast; 2.52 µM in the test on PC-3 prostate; 3.06 µM with SK-MEL-2 melanoma; 3.31 µM with SK-MEL-28 melanoma. Further, the TGI in the test with SN12C renal came to 3.77 µM; in the test with SNB-75 CNS it was 2.55 µM; in the test on TK-10 renal, 2.49 µM.

On to `[Cu].c1ccc2c(c1)C1=NC2=NC2=NC(=NC3=NC(=NC4=NC(=N1)c1ccccc14)c1ccccc13)c1ccccc12`, for which the GI50 with 786-0 renal, in the test with M14 melanoma, in the test on MCF7 breast, with PC-3 prostate, in the test with SK-MEL-2 melanoma and with SK-MEL-28 melanoma was greater than 100 µM throughout. In addition, the GI50 in the test with SN12C renal was greater than 100 µM; in the test with SNB-75 CNS, greater than 100 µM; in the test with TK-10 renal, greater than 100000 nM. The TGI in the test with 786-0 renal, with M14 melanoma, with MCF7 breast, in the test with PC-3 prostate, in the test on SK-MEL-2 melanoma and in the test with SK-MEL-28 melanoma was greater than 100 µM throughout. For the same compound, the TGI with SN12C renal, with SNB-75 CNS and with TK-10 renal was greater than 100 µM throughout.

As for `O=C(O)CN(CCN(CC(=O)O)CC(=O)O)CCN(CC(=O)O)CC(=O)O`, the GI50 was 2.54 µM in the test on 786-0 renal; 5.29 µM with M14 melanoma; 3.75 µM in the test on MCF7 breast; 5.46 µM in the test on PC-3 prostate; 3.16 µM with SK-MEL-2 melanoma; 4.05 µM in the test on SK-MEL-28 melanoma. Moreover, the figures for the GI50 with SN12C renal, with SNB-75 CNS and in the test on TK-10 renal were 2.8 µM, 1.99 µM and 2870 nM, respectively. In addition, the TGI in the test on 786-0 renal is 6.72 µM; with M14 melanoma, 21.5 µM; with MCF7 breast it was 22.1 µM; with PC-3 prostate, greater than 100 µM; in the test with SK-MEL-2 melanoma it was 9.8 µM; in the test on SK-MEL-28 melanoma, 17.2 µM. Besides, the TGI in the test with SN12C renal is 13.9 µM; in the test with SNB-75 CNS, 7.86 µM; with TK-10 renal it was 7.52 µM.

In the case of `O=c1cc(-c2cccc(Cl)c2)[nH]c2cc3c(cc12)OCO3`, the figures for the GI50 in the test with 786-0 renal, in the test with M14 melanoma and with SN12C renal were 0.544 µM, 0.248 µM and 0.522 µM, respectively. Besides, the TGI with 786-0 renal is 23.4 µM and 23.8 µM; in the test with M14 melanoma, 75 µM and 13.9 µM; with MCF7 breast it was greater than 100 µM; in the test with PC-3 prostate it was greater than 100 µM; in the test with SK-MEL-2 melanoma, 0.582 µM and 0.72 µM; in the test with SN12C renal, 75 µM and 12.5 µM. The TGI in the test with SNB-75 CNS is 0.712 µM; in the test on SR leukemia, 54.7 µM; in the test on TK-10 renal, 39.3 µM and 22.4 µM.

`Clc1ccc2c(NC3CCC(NC4CCCCC4)CC3)ccnc2c1` (stereo not drawn): the GI50 in the test with 786-0 renal was 11.9 µM; in the test with M14 melanoma, 1.72 µM; in the test on MCF7 breast it was 2.49 µM; in the test with PC-3 prostate, 11.2 µM; in the test on SK-MEL-2 melanoma, 1.97 µM; in the test on SK-MEL-28 melanoma, 1.79 µM. Also, the GI50 in the test on SN12C renal is 14.7 µM; with SNB-75 CNS, 4.63 µM; in the test on TK-10 renal, 2130 nM. The TGI in the test on 786-0 renal was 24.5 µM; in the test on M14 melanoma, 3.19 µM; in the test on MCF7 breast it was 11 µM; with PC-3 prostate it was 43.2 µM; in the test with SK-MEL-2 melanoma, 3.95 µM; with SK-MEL-28 melanoma, 3.3 µM. The values for the TGI in the test with SN12C renal, with SNB-75 CNS and in the test with TK-10 renal were 68.3 µM, 19.4 µM and 7.11 µM, respectively.

`COc1cc(OC)c(OC)cc1/C=C/c1ccccn1`: the TGI with 786-0 renal, in the test with M14 melanoma, in the test with MCF7 breast, in the test with PC-3 prostate, with SK-MEL-2 melanoma and with SK-MEL-28 melanoma was greater than 10 µM each time. For the same compound, the TGI in the test on SN12C renal, in the test on SNB-75 CNS and in the test on TK-10 renal was greater than 10 µM in each case.

Consider `Cc1cc2c(cc1Cl)SC(=Nc1ccc(Cl)cc1)N(S(=O)(=O)c1ccc(Br)s1)S2(=O)=O`, for which the GI50 with 786-0 renal was 11.7 µM; in the test on M14 melanoma, 21.9 µM; in the test on MCF7 breast, 46.3 µM; in the test with PC-3 prostate, 12.5 µM; in the test on SK-MEL-2 melanoma it was 35.3 µM; in the test with SK-MEL-28 melanoma it was 24.6 µM. Moreover, the GI50 is 14.1 µM in the test with SN12C renal, 5.11 µM with SR leukemia and 19900 nM in the test with TK-10 renal. Further, the TGI with 786-0 renal was 24.7 µM; in the test on M14 melanoma, 56.5 µM; in the test on MCF7 breast, greater than 100 µM; with PC-3 prostate, 27.1 µM; in the test with SK-MEL-2 melanoma, greater than 100 µM; in the test with SK-MEL-28 melanoma it was greater than 100 µM. The figures for the TGI with SN12C renal, in the test with SR leukemia and with TK-10 renal were 32.6 µM, greater than 100 µM and 49.6 µM, respectively.

With `OC(c1ccccc1)c1c(-c2ccccc2)[nH]c(-c2ccccc2)c1C(O)c1ccccc1` (stereo not drawn), the TGI with 786-0 renal worked out at 16.1 µM; in the test with M14 melanoma it was 11.8 µM; in the test with MCF7 breast it was 19.1 µM; in the test with PC-3 prostate, 21.1 µM; in the test with SK-MEL-2 melanoma it was 5.18 µM; in the test on SK-MEL-28 melanoma, 12.1 µM. The TGI in the test with SN12C renal stood at 5.68 µM; in the test with SR leukemia, 8.25 µM; in the test with TK-10 renal it was 18.9 µM.
